Experimental data reported in patent US20210322393A1, “METHODS OF TREATING COGNITIVE IMPAIRMENT ASSOCIATED WITH NEURODEGENERATIVE DISEASE” (Aptinyx Inc., priority 2019, published 2021).

What was measured:
Format in all cases: in vivo
[1] = test system: MPTP non-human primate model of Parkinson's disease cognitive impairment; test: Chronic low dose MPTP non-human primate model of Parkinson's disease cognitive impairment
[2] = test system: rodent cognitive models (Morris water maze); test: Morris water maze rodent cognitive model
[3] = test system: rodent cognitive models (novel object recognition); test: Novel object recognition rodent cognitive model
[4] = Pharmacokinetic profile in dog
Tolerability in dog = test: Tolerability in dog
[5] = Pharmacokinetic profile in rat
Tolerability in rat = test: Tolerability in rat

With COc1ccc(CN2C[C@@]3(CCNC(=O)C3)C2=O)cc1 [The Compound, (S) 2-(4-methoxybenzyl)-2,7-diazaspiro[3.5]nonane-1,6-dione] the “onset, size and duration of effect” value ([1]; MPTP non-human primate study) was “rapid, robust, and long lasting effect”, the “effect on MPTP-induced cognitive deficits (attention, working memory, executive function)” value ([1]; primate versions of Cambridge Neuropsychological Test Automated Battery assessments) was “reversed MPTP-induced deficits in several cognitive domains” and the “efficacy in Morris water maze” value [2] was “robust efficacy”. The “efficacy in novel object recognition” value [3] was “robust efficacy”, the pharmacokinetic profile [4] was “favorable pharmacokinetic profile” and the tolerability (Tolerability in dog) was “well tolerated”. The pharmacokinetic profile [5] was “favorable pharmacokinetic profile” and the tolerability (Tolerability in rat) was “well tolerated”.
